Data published in patent US10189824B2, “Pyrimidine-diamine dual HSP90/TRAP1 inhibitors” (CalAsia Pharmaceuticals, Inc., priority 2014, dated 2019).

Assays:
human Hsp90 = experiment: Fluorescence polarization (FP) displacement assay, GA-FITC, Hsp90; type: binding; conditions: FP displacement of GA-FITC, 50 nM Hsp90; for IC50: read-out: Biochemical efficacy HSP90 IC50; for Ki: read-out: Biochemical efficacy HSP90 Ki
Procedure: (§1) Prior to transforming into BL21 (DE3) all the cloned vectors were sequence confirmed. Expressed proteins were purified using NTA resin (Life Technologies) followed by size exclusion chromatography using FPLC. The molecular mass of the purified proteins was confirmed by MALDI-TOF and assessed for purity by SDS-PAGE.
(§2) The assay conditions were 20 mM HEPES, pH-7.5, 50 mM KCl, 5 mM MgCl2, 20 mM sodium molybdate, 2 mM DTT, 0.01% NP40, 100 ug/ml BSA, 50 nM Hsp90 or 200 nM TRAP1, 1% DMSO, and 8 nM (for Hsp90) or 20 nM (for TRAP1) GA-FITC in the presence of increasing concentrations of test compound.

GBM10 = experiment: Cellular efficacy in Mayo Clinic GBM PDX cell line GBM10; type: cell-based
Procedure: (§3) Short-term explant cultures from PDX models were seeded into 96-well Perfecta3D hanging drop plates to form a single spheroid in each well after 2 days. The spheroids were transferred to a round bottom 96 well plate by centrifugation and then incubated with graded concentrations of test compound (8 spheroids per compound concentration). Spheroid volumes were monitored every 6 hours over the course of 5 days using the IncuCyte system (Essen BioScience, MI, US) to provide a growth curve akin to a tumor regrowth assay.

[1] = test system: Hsp90 client proteins (Akt1, ERK1) in MDA-MB-231 cell line; experiment: Cellular biomarker assays (Akt1, ERK1 ELISA) in MDA-MB-231; type: cell-based; conditions: 48 hours
Procedure: (§4) Cellular biomarker assays: Cells were cultured in culture medium (RPMI-glutamax, 10% FCS, 100 units/ml penicillin, and 100 μg/ml streptomycin). Cells were passaged after lifting using 0.25% trypsin/EDTA, and 3×10^5 cells were seeded in each well of six well plates (total volume 2.5 mL/well). After the cells were cultured for 24 hours, increasing concentrations of Hsp90 inhibitor were added to wells in triplicate from DMSO-containing stock solutions and mixed by gently by stirring. Final DMSO concentration in all wells was 0.25%. The treated cells were then cultured for 48 hours prior to lysate preparation. The culture media was removed from wells, and the wells were washed twice with DPBS containing 1 mM CaCl2 and 0.5 mM MgCl2. […] The protein concentration in the cell lysates was determined using the BCA protein assay kit used according to the manufacturer's recommendations. […] Protein concentrations were determined using a micro-titer plate reader (Model # Synergy HT; BioTek Inc., Winooski, Vt.).
(§5) Akt1 and ERK1 levels in the cell lysates were measured using kits from R&D Systems used according to the manufacturer's recommendations. […] Akt1 and ERK1 levels were determined using a micro-titer plate reader (Model # Synergy HT; BioTek Inc., Winooski, Vt.) (FIGS. 5 and 8).

TRAP1 = molecular target: T1, TRAP1 (Homo sapiens, UniProt Q12931); experiment: Fluorescence polarization (FP) displacement assay, GA-FITC, TRAP1; type: binding; conditions: FP displacement of GA-FITC, 200 nM TRAP1; for Ki: NA: Not active, read-out: Biochemical efficacy TRAP1 Ki; for IC50: read-out: Biochemical efficacy TRAP1 IC50
T1 construct: Recombinant full-length human Hsp90 and 459 TRAP1 were cloned; 6His (TEV-cleavable) (N); made in house; host or cells: E. coli BL21 (DE3)
T1 sequence (Q12931 60-704): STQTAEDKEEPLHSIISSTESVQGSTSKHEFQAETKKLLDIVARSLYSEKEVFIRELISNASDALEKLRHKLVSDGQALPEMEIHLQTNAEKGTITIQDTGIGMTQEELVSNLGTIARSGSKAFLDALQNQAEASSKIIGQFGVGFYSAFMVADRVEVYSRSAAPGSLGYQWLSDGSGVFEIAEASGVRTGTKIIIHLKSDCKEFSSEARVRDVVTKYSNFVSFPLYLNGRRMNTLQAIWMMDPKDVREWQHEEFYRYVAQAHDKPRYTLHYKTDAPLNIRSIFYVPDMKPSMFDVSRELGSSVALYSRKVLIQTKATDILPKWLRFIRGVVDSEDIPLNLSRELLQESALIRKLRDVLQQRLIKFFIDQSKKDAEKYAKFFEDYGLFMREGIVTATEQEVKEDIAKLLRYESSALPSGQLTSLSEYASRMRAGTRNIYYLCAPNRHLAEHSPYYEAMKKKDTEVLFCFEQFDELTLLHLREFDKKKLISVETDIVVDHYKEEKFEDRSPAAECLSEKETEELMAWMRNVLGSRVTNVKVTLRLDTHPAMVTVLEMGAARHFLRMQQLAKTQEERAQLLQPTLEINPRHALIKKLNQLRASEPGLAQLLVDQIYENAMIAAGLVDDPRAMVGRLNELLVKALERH
Procedure: as §1, §2

[2] = test system: Hsp90 client proteins (EGFR and Akt1) in Mayo Clinic GBM PDX cell lines; experiment: Cellular biomarker assays (EGFR, Akt1 ELISA) in Mayo Clinic GBM PDX cell lines; type: cell-based; conditions: 48 hours; three cell lines
[3] = test system: Hsp90 client proteins (Akt1, ERK1) in HEI193; experiment: Cellular biomarker assays (Akt1, ERK1 ELISA) in HEI193; type: cell-based, human; conditions: 48 hour treatment
Procedure: as §4, §5

[4] = test system: Mayo Clinic patient derived GBM tumor cells; experiment: Mayo Clinic patient derived GBM tumor cell proliferation; type: cell-based; conditions: 132 hours
Procedure: as §3

GBM39 = experiment: Cellular efficacy in Mayo Clinic GBM PDX cell line GBM39; type: cell-based
Procedure: as §3

GBM43 = experiment: Cellular efficacy in Mayo Clinic GBM PDX cell line GBM43; type: cell-based
Procedure: as §3

HEI193 cells = experiment: TMRE assay, HEI193 cell mitochondrial integrity; type: cell-based, human; conditions: observed as early as 2 hours after treatment
Procedure: Mitochondrial integrity was evaluated using Tetramethylrhodamine ethyl ester (TMRE) assay. A TMRE assay kit (Abcam) was used to evaluate Hsp90/TRAP1 inhibitor-induced changes in mitochondrial membrane potential. […] TMRE (200 nM) was then added to wells for 30 min and monitored for changes in fluorescence activity using a fluorescence plate reader (ex544/em 590) after washing the cells. Specific TMRE fluorescence was calculated by comparison to matched wells pretreated with the depolarizing proton ionophore carbonyl cyanide 4-(trifluoromethoxy)phenylhydrazone (FCCP) at 20 uM 10 min prior to addition of TMRE. For mitochondria assays, mitochondria was isolated using a kit from Thermoscientific and loaded with 0.1 mM TMRE. TMRE-loaded mitochondria (2 μg per well) were incubated with test compounds and monitored kinetically at 30° C. for changes in fluorescence using a flurorescence plate reader (ex 544/em 590) (FIGS. 6A, 9A and 12).

IC50 (human Hsp90)	Ki (human Hsp90)	EC50 (GBM10)	Ki (TRAP1)	IC50 (TRAP1)	EC50 (GBM39)	EC50 (GBM43)	SMILES	Effect on Akt1 and ERK1 levels, MDA-MB-231 [1]	Effect on EGFR and Akt1 levels, GBM PDX cell lines [2]	Effect on Akt1 and ERK1 levels, HEI193 [3]	Effect on patient derived GBM tumor cell proliferation [4]	Effect on TMRE fluorescence in HEI193 cells (HEI193 cells)
33 nM	8 nM	1200 nM	11 nM	85 nM	620 nM	870 nM	Cc1cnc(CN(CC2(c3ccc(F)cc3)CCOCC2)c2cc(Cl)nc(N)n2)c(C)c1Cl [Compound B, 6-chloro-4-N-[(4-chloro-3,5-dimethylpyridin-2-yl)methyl]-4-N-{[4-(4-fluorophenyl)oxan-4-yl]methyl}pyrimidine-2,4-diamine]	suppression of Hsp90 client proteins	suppression of Hsp90 client proteins	reduction of Hsp90 client proteins	inhibit	–
87 nM	22 nM	–	–	> 4000 nM	–	–	COc1ccnc(CN(CC2(c3ccc(F)cc3)CCOCC2)c2cc(Cl)nc(N)n2)c1C [Compound C, 6-chloro-4-N-{[4-(4-fluorophenyl)oxan-4-yl]methyl}-4-N-[(4-methoxy-3-methylpyridin-2-yl)methyl]pyrimidine-2,4-diamine]	–	–	–	–	–
54 nM	14 nM	–	68 nM	543 nM	–	–	COc1c(C)cnc(CN(CC2(c3cccc(C)n3)CCOCC2)c2cc(Cl)nc(N)n2)c1C [Compound D, 6-chloro-4-N-[(4-methoxy-3,5-dimethylpyridin-2-yl)methyl]-4-N-{[4-(6-methylpyridin-2-yl)oxan-4-yl]methyl}pyrimidine-2,4-diamine]	–	–	–	–	–
96 nM	24 nM	–	138 nM	1100 nM	–	–	COc1c(C)cnc(CN(CC2(c3ccccn3)CCOCC2)c2cc(Cl)nc(N)n2)c1C [Compound E, 6-chloro-4-N-[(4-methoxy-3,5-dimethylpyridin-2-yl)methyl]-4-N-{[4-(pyridin-2-yl)oxan-4-yl]methyl}pyrimidine-2,4-diamine]	–	–	–	–	–
–	–	–	–	–	–	–	CC(C)c1cc(-c2n[nH]c(=O)n2-c2ccc3c(ccn3C)c2)c(O)cc1O [Ganetespib, reference compound]	–	–	–	–	significantly weaker response
